How the values were obtained:
[1] = target: T1, GyrA^S91F/D95G N. gonorrhoeae gyrase (Neisseria gonorrhoeae, UniProt P22118+P48371, D95G/S91F); test: Gyrase-catalyzed DNA supercoiling, GyrA S91F/D95G gyrase; format: biochemical; details: ± standard error of the mean, read-out: IC50, inhibition of DNA supercoiling
T1 construct: His-tag; purchased GenScript

[2] = target: WT N. gonorrhoeae gyrase (Neisseria gonorrhoeae, UniProt P22118+P48371); test: Gyrase-mediated DNA cleavage, WT gyrase; details: GyrA WT; induced by 8-methyl-2,4-quinazolinedione
Chain of WT N. gonorrhoeae gyrase (P48371 whole entry): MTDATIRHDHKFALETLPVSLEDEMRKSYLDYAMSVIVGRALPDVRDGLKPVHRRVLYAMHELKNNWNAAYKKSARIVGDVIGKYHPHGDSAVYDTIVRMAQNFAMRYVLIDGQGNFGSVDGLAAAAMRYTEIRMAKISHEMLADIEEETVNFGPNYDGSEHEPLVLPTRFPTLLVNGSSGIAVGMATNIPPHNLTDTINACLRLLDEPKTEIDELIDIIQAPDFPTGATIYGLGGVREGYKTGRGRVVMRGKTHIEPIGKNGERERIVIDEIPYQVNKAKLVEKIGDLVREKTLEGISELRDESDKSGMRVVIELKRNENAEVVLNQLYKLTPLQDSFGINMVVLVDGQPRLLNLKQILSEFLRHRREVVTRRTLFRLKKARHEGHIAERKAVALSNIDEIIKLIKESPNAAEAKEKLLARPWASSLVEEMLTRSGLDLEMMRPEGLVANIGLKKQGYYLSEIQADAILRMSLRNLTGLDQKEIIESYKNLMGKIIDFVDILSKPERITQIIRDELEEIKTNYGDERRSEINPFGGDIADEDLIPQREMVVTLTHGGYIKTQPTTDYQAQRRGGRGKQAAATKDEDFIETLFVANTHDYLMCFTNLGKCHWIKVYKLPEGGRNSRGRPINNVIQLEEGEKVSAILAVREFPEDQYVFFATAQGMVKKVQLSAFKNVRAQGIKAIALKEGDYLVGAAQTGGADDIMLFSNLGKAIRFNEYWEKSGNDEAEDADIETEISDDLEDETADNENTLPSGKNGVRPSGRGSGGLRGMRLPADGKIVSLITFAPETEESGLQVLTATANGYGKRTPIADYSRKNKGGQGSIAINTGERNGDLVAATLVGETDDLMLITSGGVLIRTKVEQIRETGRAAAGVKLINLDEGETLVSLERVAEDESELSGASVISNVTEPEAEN
Chain of WT N. gonorrhoeae gyrase (P22118 whole entry): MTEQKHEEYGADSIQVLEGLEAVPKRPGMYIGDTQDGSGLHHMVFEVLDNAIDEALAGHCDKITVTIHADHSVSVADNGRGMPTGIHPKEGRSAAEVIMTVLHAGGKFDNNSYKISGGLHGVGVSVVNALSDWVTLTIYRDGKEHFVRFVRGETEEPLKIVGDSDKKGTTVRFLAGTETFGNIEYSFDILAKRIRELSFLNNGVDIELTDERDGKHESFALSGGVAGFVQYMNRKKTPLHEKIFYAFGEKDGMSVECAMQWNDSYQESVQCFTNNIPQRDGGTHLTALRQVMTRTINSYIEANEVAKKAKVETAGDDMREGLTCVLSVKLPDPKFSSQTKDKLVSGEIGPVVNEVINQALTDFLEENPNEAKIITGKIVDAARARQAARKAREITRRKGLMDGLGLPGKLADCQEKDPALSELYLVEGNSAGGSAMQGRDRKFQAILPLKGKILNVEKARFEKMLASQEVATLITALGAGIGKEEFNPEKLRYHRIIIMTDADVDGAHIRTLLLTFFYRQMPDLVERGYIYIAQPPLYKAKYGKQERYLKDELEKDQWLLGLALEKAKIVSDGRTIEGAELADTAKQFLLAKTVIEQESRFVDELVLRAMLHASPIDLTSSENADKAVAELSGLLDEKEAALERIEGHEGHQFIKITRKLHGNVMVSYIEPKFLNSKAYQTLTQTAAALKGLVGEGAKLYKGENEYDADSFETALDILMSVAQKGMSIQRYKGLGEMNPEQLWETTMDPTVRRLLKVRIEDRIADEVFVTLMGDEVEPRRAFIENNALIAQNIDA

[3] = target: T2, ParC^E91G N. gonorrhoeae topoisomerase IV (Neisseria gonorrhoeae, UniProt P48374, E91G); test: Topoisomerase IV-catalyzed DNA decatenation, ParC E91G; format: biochemical
T2 sequence (P48374 1-768 E91G): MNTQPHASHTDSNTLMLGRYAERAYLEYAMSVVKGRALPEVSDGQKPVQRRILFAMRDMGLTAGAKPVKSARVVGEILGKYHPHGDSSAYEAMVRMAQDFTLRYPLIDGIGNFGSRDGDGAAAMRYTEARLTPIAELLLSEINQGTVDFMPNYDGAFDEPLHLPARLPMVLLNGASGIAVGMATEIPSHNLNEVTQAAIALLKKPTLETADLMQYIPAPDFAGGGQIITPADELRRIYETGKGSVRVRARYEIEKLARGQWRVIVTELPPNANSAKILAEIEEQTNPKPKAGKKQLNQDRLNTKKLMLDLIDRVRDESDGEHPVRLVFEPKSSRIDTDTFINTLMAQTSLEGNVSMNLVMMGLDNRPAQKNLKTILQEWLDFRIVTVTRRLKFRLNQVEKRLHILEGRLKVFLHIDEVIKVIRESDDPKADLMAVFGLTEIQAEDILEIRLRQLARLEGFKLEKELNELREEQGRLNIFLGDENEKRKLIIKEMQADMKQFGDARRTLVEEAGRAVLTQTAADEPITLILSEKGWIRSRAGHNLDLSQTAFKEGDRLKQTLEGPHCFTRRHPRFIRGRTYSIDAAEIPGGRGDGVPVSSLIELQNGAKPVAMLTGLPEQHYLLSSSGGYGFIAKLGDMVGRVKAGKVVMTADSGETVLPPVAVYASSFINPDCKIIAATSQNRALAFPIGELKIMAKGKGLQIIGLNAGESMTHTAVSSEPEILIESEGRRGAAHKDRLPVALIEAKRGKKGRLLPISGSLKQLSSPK

[4] = target: WT N. gonorrhoeae topoisomerase IV (Neisseria gonorrhoeae, UniProt P48374); test: Topoisomerase IV-catalyzed DNA decatenation, WT; format: biochemical
Protocol: DNA decatenation assays were based on previously published protocols by Anderson et al.[79] and Aldred et al.[30] Assays contained 10 nM WT, 20 nM ParC^S87N, 35 nM ParC^E91G, or 35 nM ParC^S87N/E91GN. gonorrhoeae topoisomerase IV, 5 nM kDNA, and 1 mM ATP in 20 μL of 40 mM HEPES-KOH (pH 7.6), 25 mM NaCl, 100 mM KGlu, and 10 mM Mg(OAc)2. Assay mixtures were incubated at 37 °C for 10 min with WT, 15 min with ParC^S87N, and 30 min with ParC^E91G and ParC^S87N/E91GN. gonorrhoeae topoisomerase IV, which represents the minimum time required to completely decatenate the kDNA in the absence of a drug. Reactions were stopped, subjected to electrophoresis, and visualized as described for gyrase-catalyzed DNA supercoiling.

[5] = target: T3, ParC^S87N N. gonorrhoeae topoisomerase IV (Neisseria gonorrhoeae, UniProt P48374, S87N); test: Topoisomerase IV-catalyzed DNA decatenation, ParC S87N; format: biochemical
T3 sequence (P48374 1-768 S87N): T2 sequence (P48374 1-768 E91G)

[6] = target: T4, ParC^S87N/E91G N. gonorrhoeae topoisomerase IV (Neisseria gonorrhoeae, UniProt P48374, E91G/S87N); test: Topoisomerase IV-catalyzed DNA decatenation, ParC S87N/E91G; format: biochemical
T4 sequence (P48374 1-768 S87N/E91G): T2 sequence (P48374 1-768 E91G)

T1 sequence (P48371 whole entry, looked up, stated change not applied): as the sequence (P48371 whole entry) above
T1 sequence (P22118 whole entry, stated change not applied): as the sequence (P22118 whole entry) above

Row | Compound | IC50 [1] [µM] | Max % DSB [2] [%] | IC50 [3] [µM] | IC50 [4] [µM] | IC50 [5] [µM] | IC50 [6] [µM]
1 | Cc1c(N2CC[C@@H](CN)C2)c(F)cc2c(=O)n(N)c(=O)n(C3CC3)c12 [8-Me-2,4-QD, 3-Amino-7-[(3S)-3-(aminomethyl)-1-pyrrolidinyl]-1-cyclopropyl-6-fluoro-8-methyl-2,4(1H,3H)-quinazolinedione] | 19.7 | 28.9 | – | – | – | –
2 | O=C(O)c1cn(C2CC2)c2cc(N3CCNCC3)c(F)cc2c1=O [Ciprofloxacin] | – | – | 301 ± 23.8 | 13.7 | 16.4 | > 500

— paper PMC11015056 (ACS Infectious Diseases, 2024)
